Measured values published in patent US20230390235A1, “THERAPEUTIC AGENT FOR COVID-19” (priority 2020, published 2023).
Read-outs that look alike come from different tables or passages of the source.

Experiments:
[1] = tested on: SARS-CoV-2 virus (USA_WA1/2020); assay: microbe, parasite or virus in culture; format: cell-based
in vivo = assay: in vivo; set-up: species or system S.D. rats; settings: male, S.D., rat, po
Procedure: Male S.D. rats weighing 160 to 210 g were used for the examination of SJA-6017. Each animal was kept in a room at a temperature of 23±2° C., a humidity of 55±10%, with lighting for 12 hours, and a ventilation frequency of 15 times/hour or more. The rats were fasted from the night before administration and feeding was resumed immediately after the administration. Water was taken freely.
(§1) For the examination of SNJ-1945, four groups of 1, 3, 10, and 30 mg/kg (n=3 for each) were set. For the examination of SJA-6017, two groups of 100 mg/kg (n=3 for each) and 500 mg/kg (n=8 for each) were set.
For SJA-6017, sodium carboxymethylcellulose was dissolved in distilled water to a concentration of 0.5% (w/v). A test substance was suspended in the resultant to prepare samples having concentrations of 10% (for […]) and 2% (for 100 mg/kg).
(§2) SNJ-1945 was orally administered forcibly a single time by using a gastric sonde at doses of 1, 3, 10, and 30 mg/4 mL/kg. SJA-6017 was orally administered forcibly a single time using a gastric sonde at a dose of 5 mL/kg.
In the SJA-6017 administration group, blood samples were collected from the abdominal aorta under ether anesthesia 30 minutes and 1, 2, 4 and 8 hours after administration. The resulting blood was immediately centrifuged at 5,000 rpm for 10 minutes, and plasma was collected.
Plasma (200 μL) obtained from the SJA-6017 administration group was placed in a brown Spitz tube, and 0.01 M HCl (0.5 mL) was added thereto, and diethyl ether (3 mL) was further added, followed by shaking for 10 minutes. Thereafter, centrifugation (3,000 rpm) for 10 minutes was performed to separate the aqueous layer from the diethyl ether phase. The lower aqueous layer alone was frozen in dry-ice acetone, and the diethyl ether layer was separated into another brown Spitz tube. Thereafter, drying was conducted under reduced pressure, and acetonitrile (100 μL) and a 0.01M hydrochloric acid solution (200 μL) of 5 mM phenylhydrazine hydrochloride were added, followed by stirring and dissolving. The solution was transferred to an HPLC vial and allowed to react for 1 hour at 40° C. using a water bath. 150 μL of this sample solution was analyzed by HPLC.
• Detector: UV absorbance spectrophotometer (measurement • wavelength: 272 nm) • Column: Capcell-pak SG-120 (250 mm) • Column temperature: 40° C. • Mobile phase: 0.02 M phosphate buffer (pH of 7.0)/acetonitrile mixture (45:55) • Flow rate: 1.0 mL/min
Cmax and AUC0-8 were calculated from the mean plasma concentration at each time point.

[2] = Pharmacokinetic (PK) measurement of SNJ-1945, oral, rats, LC/MS/MS; format: in vivo; settings: male, S.D., rat plasma; for AUC(0-t): read-out: AUC0-8
Procedure: Eight-week-old male S.D. rats were used for the examination of SNJ-1945. Each animal was kept in a room at a temperature of 21.6° C. to 22.3° C., a humidity of 47.7% to 60.3%, with lighting for 12 hours/day, and a ventilation frequency of 6 to 20 times/hour. The rats were fasted from the evening of the day before administration, and feeding was resumed after the completion of blood sampling, which was conducted 8 hours after the administration. Water was taken freely.
as §1
For SNJ-1945, methylcellulose was dissolved in water for injection to a concentration of 1 w/v %. A test substance was suspended in the resultant to prepare samples having concentrations of 0.25 mg/mL (for 1 mg/kg), 0.75 mg/mL (for 3 mg/kg), 2.5 mg/mL (for 10 mg/kg), and 7.5 mg/mL (for 30 mg/kg). The administration solution was dispensed into brown glass bottles.
as §2
In the SNJ-1945 administration group, blood samples were taken over time from the subclavian vein 30 minutes and 1, 2, 4, and 8 hours after administration. The obtained blood was immediately centrifuged at 10000×g for 3 minutes, and plasma was collected.
Plasma (20 μL) obtained from the SNJ-1945 administration group was placed in a polypropylene tube, methanol (20 μL) was added thereto, and an internal standard solution (SNJ-1945-d7; 100 μL) was added thereto, followed by stirring for about 5 minutes. Thereafter, centrifugation (10,000×g) was performed for 5 minutes, and 100 μL of a supernatant was transferred to another polypropylene tube. 1 mmol/L EDTA-2K (100 μL) was added, followed by stirring for about 10 seconds. The solution was set in an autosampler and measured within 72 hours.
A Shimadzu 20AD LC System 2 (prominence UFLCXR system; Shimadzu Corporation) and a mass spectrometer (API5000; AB SCIEX) were used as measuring instruments. High-performance liquid chromatography was performed according to the following conditions. Column: CAPCELL CORE AQ, 2.7 μm, 2.1×50 mm (Shiseido Japan Co., Ltd.); column temperature: 60° C.; mobile phase A: 5 mmol/L ammonium hydrogen carbonate/l mmol/LEDTA-2K (500:1, v/v); mobile phase B: methanol; flow rate: 0.8 mL/min.
The mass spectrometer was set according to the following conditions: ionization mode: turbo ion spray; measurement mode: multiple reaction monitoring; detection mode: negative; collision gas: N2, 6 (number of valves opened); curtain gas: N2, 15 psi, ion source gas 1: air, 80 psi; ion source gas 2: air, 80 psi; ion spray voltage: −4500 V; temperature: 500° C.; channel electron multiplier: 1800 V or 2000 V. Monitoring ions and dwell time were set as shown in Table 4 below.
The measurement results of plasma concentration were analyzed by non-compartmental analysis in the pharmacokinetic analysis software Phoenix WinNonlin Ver. 6.3 (Pharsight Corporation as part of Certara), and each pharmacokinetic parameter was calculated in accordance with the method shown in Table 5 below.

[3] = tested on: SARS-CoV-2 S pseudotype virus (wild type: WT); format: cell-based; settings: 100 μM, ACE2-expressing HEK293T cells, GFP fluorescence, FIG. 1
[4] = tested on: ACE2-expressing HEK293T cells
[5] = Severe acute respiratory syndrome coronavirus 2, Vero C1008, 72 h, read-out: CPE reduction (IC50)
[6] = Severe acute respiratory syndrome coronavirus 2, Vero C1008, 72 h; read-out: CPE reduction (IC50)

## CCN(CCO)CCCC(C)Nc1ccnc2cc(Cl)ccc12 (centres unmarked) [Hydroxychloroquine]
[1]; [5]
  IC50: 6.49 µM

## CC(C)C[C@@H](C=O)NC(=O)[C@@H](NS(=O)(=O)c1ccc(F)cc1)C(C)C [SJA-6017]
[1]; [6]
  IC50: 0.21 µM
In vivo; 100 mg/kg
  AUC(0-t): 679 ng·h/mL
  Cmax: 284 ng/mL
In vivo; 500 mg/kg
  AUC(0-t): 1840 ng·h/mL
  Cmax: 348 ng/mL

## CCOC(=O)[C@H]1O[C@@H]1C(=O)N[C@@H](CC(C)C)C(=O)NCCC(C)C [E64d]
[1]; read-out: CPE reduction (IC50)
  IC50: 8.23 µM

## CCN(CC)CCCC(C)Nc1ccnc2cc(Cl)ccc12 (centres unmarked) [Chloroquine]
[1]; [5]
  IC50: 2.06 µM

## COCCOCCOC(=O)N[C@@H](CC(C)C)C(=O)N[C@@H](Cc1ccccc1)C(=O)C(=O)NC1CC1 [SNJ-1945]
[2]; single oral dose 1 mg/kg
  Cmax: 186 ng/mL
  AUC(0-t): 168 ng·h/mL
[2]; single oral dose 3 mg/kg
  Cmax: 391 ng/mL
  AUC(0-t): 380 ng·h/mL
[2]; single oral dose 10 mg/kg
  Cmax: 553 ng/mL
  AUC(0-t): 691 ng·h/mL
[2]; single oral dose 30 mg/kg
  Cmax: 821 ng/mL
  AUC(0-t): 1170 ng·h/mL
[1]; [6]
  IC50: 1.52 µM
[3]
  entry inhibition of pseudotype virus into cells: inhibits entry
[4]
  highest concentration at which test compound did not show cytotoxicity: 100 µM

## CCC(CC)COC(=O)[C@H](C)N[P@](=O)(OC[C@H]1O[C@@](C#N)(c2ccc3c(N)ncnn23)[C@H](O)[C@@H]1O)Oc1ccccc1 [Remdesivir]
[1]; [5]
  IC50: 10.6 µM
